Data taken from ChEMBL document CHEMBL1124615, “A novel prodrug of an impermeant inhibitor of 3-deoxy-D-manno-2-octulosonate cytidylyltransferase has antibacterial activity” (J Med Chem, 1989).

How the values were obtained:
[1] = Compound was tested for the toxic effect in mice after intraperitoneal injection; assay type: ADME, organism-based; settings: mouse, in vivo, ip
[2] = In vitro inhibition of 3-deoxy-D-manno-2-octulosonate cytidylyltransferase (CMP-KDO) synthetase a key enzyme in the biosynthesis of the lipopolysaccharide (LPS) of Gram-negative bacteria
[3] = In vitro inhibition of (3-deoxy-D-manno-2-octulosonate cytidylyltransferase) CMP-KDO synthetase a key enzyme in the biosynthesis of the lipopolysaccharide (LPS) of Gram-negative bacteria; design: species or system Escherichia coli

| Compound | LD50 [1] [mg/kg] | other results |
| --- | --- | --- |
| CSSc1cccc2cccc(COC(C)=O)c12 | > 1000 | – |
| c1cc2c3c(cccc3c1)SC2 | ~640 | – |
| NC[C@@H](O)[C@H]1O[C@H](C(=O)O)C[C@@H](O)[C@H]1O | – | Ki [2]: 4 µM |
| O=C(O)[C@@H]1C[C@@H](O)[C@@H](O)[C@@H]([C@H](O)CO)O1 | – | Ki [3]: 12 µM |
